In patent publication US8883745B2, “C—glycolipids with enhanced Th-1 profile” (New York University, priority 2006, dated 2014):

test system: IFN-γ; test: IFN-γ levels in sera upon i.v. glycolipid administration to BALB/c mice (ELISA); assay type: in vivo; parameters: IFN-γ levels, test 1 / IFN-γ levels, test 2 / IFN-γ levels, average / IFN-γ levels, Total: unit not given here; conditions: BALB/c, ratio calculated from Tables 1-6
Method: (§1) Five- to six-week-old female C57BL/6 mice and BALB/c mice were purchased from Taconic. Each glycolipid was stored at 1 mg/ml in 100% DMSO. Mice were injected intravenously with 1 μg of each glyocolipid diluted in 200 μL sterile phosphate buffered saline (PBS). At indicated time points, sera were collected from each animal, and concentrations of IFN-γ, IL-4, and IL-12 in the sera were evaluated by enzyme-linked immunosorbent assay (ELISA). Serum concentrations of IFN-γ, IL-4, and IL-12 were evaluated using an ELISA kit (eBioscience, San Diego, Calif.). Briefly, 96 well flat-bottom ELISA plates (NUNC) were coated with capture antibody according to the manufacture's recommendation and incubated overnight at 4° C. The plates were washed with PBS+0.05% Tween 20 (PBS-T), then incubated with manufacturer provided blocking solution for 1 hr at room temperature to block non-specific binding sites. After washing with PBS-T, sera diluted 1:10 was added to the wells and incubated for 2 hrs at room temperature. Plates were then incubated at room temperature for 1 hr with biotintylated detection antibody, washed, incubated with avidin conjugated to horse radish peroxidase (HRP) for 30 min at room temperature, washed, and finally incubated with tetramethylbenzidine substrate solution in the dark for 10 minutes at room temperature. The antibodies, avidin-HRP, and substrate solution were all diluted according to the manufacture's recommendation. Reactions were stopped with 2.0N sulfuric acid and the cytokine concentration in each well was determined by comparing the absorbance at 450 nm in each well to known standards. The levels of Th1- and Th2-type cytokines were determined in two different genetic backgrounds, i.e., in C57BL/6 mice and BALB/c mice. The following compounds were administered: A=compound (A-1 trans-conformer), B=compound (A-2), C=compound (A-3), D=compound (A-4), E=compound (A-5), Z=control (PBS alone), CRONY=α-C-GalCer, KRN=α-GalCer, GCK109 (A-1 trans-conformer), GCK151 (A-1 cis-conformer), GCK152 (A-7). The levels of cytokines were measured at 0, 2, 6, 12, 24, 48, and 72 hours after the compound administration. The levels of Th1-type cytokines IFN-γ and IL-12 are summarized in FIGS. 2A-C and 3A-C, respectively. Table 7 provides IFN-γ/IL-4 and IL-12/IL-4 ratios for various compounds, which can be used as indicators of their ability to selectively stimulate Th1-type immune responses.

Compound	IFN-γ/IL-4 (BALB/c)
CCCCCCCCCCCCCC[C@@H](O)[C@@H](O)[C@H](CC[C@H]1O[C@H](CO)[C@H](O)[C@H](O)[C@H]1O)NC(=O)CCCCCCCCCCCCCCCCCCCOCCCCC [A-5]	39

same assay, conditions: BALB/c, serum, hour 0

Compound	IFN-γ levels, average	IFN-γ levels, test 1	IFN-γ levels, test 2
CCCCCCCCCCCCCC[C@@H](O)[C@@H](O)[C@H](CC[C@H]1O[C@H](CO)[C@H](O)[C@H](O)[C@H]1O)NC(=O)CCCCCCCCCCCCCCCCCCCOCCCCC [A-5]	2.5	27	27

same assay, conditions: BALB/c, serum, hour 2

Compound	IFN-γ levels, average	IFN-γ levels, test 1	IFN-γ levels, test 2
CCCCCCCCCCCCCC[C@@H](O)[C@@H](O)[C@H](CC[C@H]1O[C@H](CO)[C@H](O)[C@H](O)[C@H]1O)NC(=O)CCCCCCCCCCCCCCCCCCCOCCCCC [A-5]	101	118	84

same assay, conditions: BALB/c, serum, hour 6

Compound	IFN-γ levels, average	IFN-γ levels, test 1	IFN-γ levels, test 2
CCCCCCCCCCCCCC[C@@H](O)[C@@H](O)[C@H](CC[C@H]1O[C@H](CO)[C@H](O)[C@H](O)[C@H]1O)NC(=O)CCCCCCCCCCCCCCCCCCCOCCCCC [A-5]	1665	1650	1680

same assay, conditions: BALB/c, serum, hour 12

Compound	IFN-γ levels, average	IFN-γ levels, test 1	IFN-γ levels, test 2
CCCCCCCCCCCCCC[C@@H](O)[C@@H](O)[C@H](CC[C@H]1O[C@H](CO)[C@H](O)[C@H](O)[C@H]1O)NC(=O)CCCCCCCCCCCCCCCCCCCOCCCCC [A-5]	3566	4018	3114

same assay, conditions: BALB/c, serum, hour 24

Compound	IFN-γ levels, average	IFN-γ levels, test 1	IFN-γ levels, test 2
CCCCCCCCCCCCCC[C@@H](O)[C@@H](O)[C@H](CC[C@H]1O[C@H](CO)[C@H](O)[C@H](O)[C@H]1O)NC(=O)CCCCCCCCCCCCCCCCCCCOCCCCC [A-5]	9104.5	8738	9471

same assay, conditions: BALB/c, serum, hour 48

Compound	IFN-γ levels, average	IFN-γ levels, test 1	IFN-γ levels, test 2
CCCCCCCCCCCCCC[C@@H](O)[C@@H](O)[C@H](CC[C@H]1O[C@H](CO)[C@H](O)[C@H](O)[C@H]1O)NC(=O)CCCCCCCCCCCCCCCCCCCOCCCCC [A-5]	425.5	453	398

same assay, conditions: BALB/c, serum, hour 72

Compound	IFN-γ levels, average	IFN-γ levels, test 1	IFN-γ levels, test 2
CCCCCCCCCCCCCC[C@@H](O)[C@@H](O)[C@H](CC[C@H]1O[C@H](CO)[C@H](O)[C@H](O)[C@H]1O)NC(=O)CCCCCCCCCCCCCCCCCCCOCCCCC [A-5]	56	54	58

same assay, conditions: BALB/c, serum, total over hours 0-72

Compound	IFN-γ levels, Total
CCCCCCCCCCCCCC[C@@H](O)[C@@H](O)[C@H](CC[C@H]1O[C@H](CO)[C@H](O)[C@H](O)[C@H]1O)NC(=O)CCCCCCCCCCCCCCCCCCCOCCCCC [A-5]	14922

same assay, conditions: C57BL/6 and BALB/c mice, 1 μg i.v.

Compound	effect: higher/extended IFN-γ and IL-12 with much lower IL-4 compared to α-GalCer (KRN)
CCCCCCCCCCCCCC[C@@H](O)[C@@H](O)[C@H](CC[C@H]1O[C@H](CO)[C@H](O)[C@H](O)[C@H]1O)NC(=O)CCCCCCCCCCCCCCCCCCCOCCCCC [A-5]	particularly pronounced

test system: IL-12; test: IL-12 levels in sera upon i.v. glycolipid administration to BALB/c mice (ELISA); assay type: in vivo; parameters: IL-12 levels, test 1 / IL-12 levels, test 2 / IL-12 levels, average / IL-12 levels, Total: unit not given here; conditions: ratio calculated from Tables 1-6
Method: as §1

Compound	IL-12/IL-4 (BALB/c)
CCCCCCCCCCCCCC[C@@H](O)[C@@H](O)[C@H](CC[C@H]1O[C@H](CO)[C@H](O)[C@H](O)[C@H]1O)NC(=O)CCCCCCCCCCCCCCCCCCCOCCCCC [A-5]	13

same assay, conditions: serum, hour 0

Compound	IL-12 levels, average	IL-12 levels, test 1	IL-12 levels, test 2
CCCCCCCCCCCCCC[C@@H](O)[C@@H](O)[C@H](CC[C@H]1O[C@H](CO)[C@H](O)[C@H](O)[C@H]1O)NC(=O)CCCCCCCCCCCCCCCCCCCOCCCCC [A-5]	5	5	5

same assay, conditions: serum, hour 2

Compound	IL-12 levels, average	IL-12 levels, test 1	IL-12 levels, test 2
CCCCCCCCCCCCCC[C@@H](O)[C@@H](O)[C@H](CC[C@H]1O[C@H](CO)[C@H](O)[C@H](O)[C@H]1O)NC(=O)CCCCCCCCCCCCCCCCCCCOCCCCC [A-5]	153.5	74	233

same assay, conditions: serum, hour 6

Compound	IL-12 levels, average	IL-12 levels, test 1	IL-12 levels, test 2
CCCCCCCCCCCCCC[C@@H](O)[C@@H](O)[C@H](CC[C@H]1O[C@H](CO)[C@H](O)[C@H](O)[C@H]1O)NC(=O)CCCCCCCCCCCCCCCCCCCOCCCCC [A-5]	1668	1587	1749

same assay, conditions: serum, hour 12

Compound	IL-12 levels, average	IL-12 levels, test 1	IL-12 levels, test 2
CCCCCCCCCCCCCC[C@@H](O)[C@@H](O)[C@H](CC[C@H]1O[C@H](CO)[C@H](O)[C@H](O)[C@H]1O)NC(=O)CCCCCCCCCCCCCCCCCCCOCCCCC [A-5]	2806.5	2246	3367

same assay, conditions: serum, hour 24

Compound	IL-12 levels, average	IL-12 levels, test 1	IL-12 levels, test 2
CCCCCCCCCCCCCC[C@@H](O)[C@@H](O)[C@H](CC[C@H]1O[C@H](CO)[C@H](O)[C@H](O)[C@H]1O)NC(=O)CCCCCCCCCCCCCCCCCCCOCCCCC [A-5]	141	110	172

same assay, conditions: serum, hour 48

Compound	IL-12 levels, average	IL-12 levels, test 1	IL-12 levels, test 2
CCCCCCCCCCCCCC[C@@H](O)[C@@H](O)[C@H](CC[C@H]1O[C@H](CO)[C@H](O)[C@H](O)[C@H]1O)NC(=O)CCCCCCCCCCCCCCCCCCCOCCCCC [A-5]	97	0	194

same assay, conditions: serum, hour 72

Compound	IL-12 levels, average	IL-12 levels, test 1	IL-12 levels, test 2
CCCCCCCCCCCCCC[C@@H](O)[C@@H](O)[C@H](CC[C@H]1O[C@H](CO)[C@H](O)[C@H](O)[C@H]1O)NC(=O)CCCCCCCCCCCCCCCCCCCOCCCCC [A-5]	76.5	153	0

same assay, conditions: serum, total over hours 0-72

Compound	IL-12 levels, Total
CCCCCCCCCCCCCC[C@@H](O)[C@@H](O)[C@H](CC[C@H]1O[C@H](CO)[C@H](O)[C@H](O)[C@H]1O)NC(=O)CCCCCCCCCCCCCCCCCCCOCCCCC [A-5]	4949
